{
  "source": "patent US9719093B2",
  "about": "“Composition for treating cancer associated with HPV infection” (priority 2012, dated 2017)",
  "tested_on": "HeLa cell line",
  "experiment": "Cell senescence-associated β-galactosidase (SA-β-gal) activity",
  "assay_type": "cell-based",
  "conditions": "treated alone",
  "method": "A HeLa or Caski cell line, which was seeded in a 6-well plate in 2×10^5 cells or 1.5×10^5 cells and then cultured for a day by the method as described above, was transduced with siRNA. Then, each transduced cell line was treated with cisplatin (CDDP) in a final concentration of 2.5 uM, and cultured.\nBy using the cell senescence assay kit (BioVision, USA), cells were washed with PBS and treated with SA-β-gal staining solution for 12 hours at 37. Cells stained in blue were observed by using a general optical microscope with the magnification of 100 to 200 times.\nSA β-Gal activity of a HeLA or Caski cell line, which was treated by the method as described above, was measured.",
  "data": [
    {"smiles": "N.N.[Cl][Pt][Cl]", "note": "[cisplatin]", "values": [
      {"measurement": "SA β-Gal activity (staining)", "value": "cells were stained in blue"}
    ]}
  ]
}
